Measured values reported in patent publication US20260027116A1, “Methods of Treating Chronic Graft-Versus-Host Disease Following Allogeneic Hematopoietic Stem Cell Transplantation” (Kadmon Corporation, LLC, priority 2022, published 2026).

Tested on: patients with cGVHD

## CC(C)NC(=O)COc1cccc(-c2nc(Nc3ccc4[nH]ncc4c3)c3ccccc3n2)c1 [Belumosudil, 2-{3-[4-(1H-indazol-5-ylamino)-2-quinazolinyl]phenoxy}-N-(propan-2-yl) acetamide]
Cohort 2 200 mg BID
  Urinary retention: Affected/At Risk (%): 1/16 (6.25%)
  Urinary tract infection: # Events: 2
  Urinary tract infection: Affected/At Risk (%): 2/16 (12.5%)
  Urinary tract pain: # Events: 1
  Urinary tract pain: Affected/At Risk (%): 1/16 (6.25%)
  Urine output decreased: # Events: 1
  Urine output decreased: Affected/At Risk (%): 1/16 (6.25%)
  Vascular access complication: # Events: 1
  Vascular access complication: Affected/At Risk (%): 1/16 (6.25%)
  Vertigo: # Events: 0
  Vertigo: Affected/At Risk (%): 0/16 (0%)
  Vision blurred: # Events: 2
  Vision blurred: Affected/At Risk (%): 2/16 (12.5%)
  Vomiting: # Events: 3
  Vomiting: Affected/At Risk (%): 3/16 (18.75%)
  Weight decreased: # Events: 0
  Weight decreased: Affected/At Risk (%): 0/16 (0%)
  Weight increased: # Events: 2
  Weight increased: Affected/At Risk (%): 1/16 (6.25%)
  White blood cell count decreased: # Events: 0
  White blood cell count decreased: Affected/At Risk (%): 0/16 (0%)
Cohort 3 400 mg QD
  Abdominal distension: # Events: 1
  Abdominal distension: Affected/At Risk (%): 1/21 (4.76%)
  Abdominal pain upper: # Events: 0
  Abdominal pain upper: Affected/At Risk (%): 0/21 (0%)
  Abdominal pain: # Events: 6
  Abdominal pain: Affected/At Risk (%): 4/21 (19.05%)
  Actinic keratosis: # Events: 1
  Actinic keratosis: Affected/At Risk (%): 1/21 (4.76%)
  Acute kidney injury: # Events: 6
  Acute kidney injury: Affected/At Risk (%): 2/21 (9.52%)
  Acute respiratory distress syndrome: # Events: 0
  Acute respiratory distress syndrome: Affected/At Risk (%): 0/21 (0%)
  Adrenal insufficiency: # Events: 0
  Adrenal insufficiency: Affected/At Risk (%): 0/21 (0%)
  Alanine aminotransferase increased: # Events: 2
  Alanine aminotransferase increased: Affected/At Risk (%): 2/21 (9.52%)
  All grade ALT/AST increased, No. (%): 2 (10)
  All grade Cough, No. (%): 7 (33)
  All grade Diarrhea, No. (%): 7 (33)
  All grade Dyspnea, No. (%): 7 (33)
  All grade Fatigue, No. (%): 9 (43)
  All grade Headache, No. (%): 6 (29)
  All grade Hypertension, No. (%): 4 (19)
  All grade Nausea, No. (%): 8 (38)
  All grade Peripheral edema, No. (%): 6 (29)
  All grade URI, No. (%): 7 (33)
  All-Cause Mortality, %: (14.29%)
  All-Cause Mortality, Affected/At Risk: 3/21
  Anaemia: # Events: 0
  Anaemia: Affected/At Risk (%): 0/21 (0%)
  Anal incontinence: # Events: 0
  Anal incontinence: Affected/At Risk (%): 0/21 (0%)
  Anxiety: # Events: 3
  Anxiety: Affected/At Risk (%): 3/21 (14.29%)
  Any AE, No. (%): 16 (100)
  Arthralgia: # Events: 6
  Arthralgia: Affected/At Risk (%): 5/21 (23.81%)
  Aspartate aminotransferase increased: # Events: 1
  Aspartate aminotransferase increased: Affected/At Risk (%): 1/21 (4.76%)
  Asthenia: # Events: 0
  Asthenia: Affected/At Risk (%): 0/21 (0%)
  Atelectasis: # Events: 0
  Atelectasis: Affected/At Risk (%): 0/21 (0%)
  Back pain: # Events: 1
  Back pain: Affected/At Risk (%): 1/21 (4.76%)
  Balance disorder: # Events: 0
  Balance disorder: Affected/At Risk (%): 0/21 (0%)
  Basal cell carcinoma: # Events: 0
  Basal cell carcinoma: Affected/At Risk (%): 0/21 (0%)
  Benign prostatic hyperplasia: # Events: 0
  Benign prostatic hyperplasia: Affected/At Risk (%): 0/21 (0%)
  Blepharitis: # Events: 2
  Blepharitis: Affected/At Risk (%): 1/21 (4.76%)
  Blister: # Events: 1
  Blister: Affected/At Risk (%): 1/21 (4.76%)
  Blood alkaline phosphatase increased: # Events: 0
  Blood alkaline phosphatase increased: Affected/At Risk (%): 0/21 (0%)
  Blood chloride decreased: # Events: 0
  Blood chloride decreased: Affected/At Risk (%): 0/21 (0%)
  Blood cholesterol increased: # Events: 1
  Blood cholesterol increased: Affected/At Risk (%): 1/21 (4.76%)
  Blood creatine increased: # Events: 0
  Blood creatine increased: Affected/At Risk (%): 0/21 (0%)
  Blood creatine phosphokinase increased: # Events: 0
  Blood creatine phosphokinase increased: Affected/At Risk (%): 0/21 (0%)
  Blood creatinine increased: # Events: 2
  Blood creatinine increased: Affected/At Risk (%): 2/21 (9.52%)
  Blood loss anaemia: # Events: 0
  Blood loss anaemia: Affected/At Risk (%): 0/21 (0%)
  Bronchial secretion retention: # Events: 0
  Bronchial secretion retention: Affected/At Risk (%): 0/21 (0%)
  Bronchitis: # Events: 1
  Bronchitis: Affected/At Risk (%): 1/21 (4.76%)
  Bronchoscopy: # Events: 0
  Bronchoscopy: Affected/At Risk (%): 0/21 (0%)
  Catheter site haemorrhage: # Events: 0
  Catheter site haemorrhage: Affected/At Risk (%): 0/21 (0%)
  Chills: # Events: 0
  Chills: Affected/At Risk (%): 0/21 (0%)
  Chronic kidney disease: # Events: 0
  Chronic kidney disease: Affected/At Risk (%): 0/21 (0%)
  Conjunctival haemorrhage: # Events: 1
  Conjunctival haemorrhage: Affected/At Risk (%): 1/21 (4.76%)
  Conjunctivitis: # Events: 3
  Conjunctivitis: Affected/At Risk (%): 3/21 (14.29%)
  Constipation: # Events: 4
  Constipation: Affected/At Risk (%): 3/21 (14.29%)
  Contrast media allergy: # Events: 0
  Contrast media allergy: Affected/At Risk (%): 0/21 (0%)
  Contusion: # Events: 4
  Contusion: Affected/At Risk (%): 3/21 (14.29%)
  Corneal abrasion: # Events: 0
  Corneal abrasion: Affected/At Risk (%): 0/21 (0%)
  Corneal infection: # Events: 0
  Corneal infection: Affected/At Risk (%): 0/21 (0%)
  Cough: # Events: 9
  Cough: Affected/At Risk (%): 7/21 (33.33%)
  Death, No. (%): 2 (10)
  Decreased appetite: # Events: 4
  Decreased appetite: Affected/At Risk (%): 4/21 (19.05%)
  Dehydration: # Events: 2
  Dehydration: Affected/At Risk (%): 2/21 (9.52%)
  Depression: # Events: 3
  Depression: Affected/At Risk (%): 3/21 (14.29%)
  Diarrhoea: # Events: 11
  Diarrhoea: Affected/At Risk (%): 7/21 (33.33%)
  Dizziness: # Events: 2
  Dizziness: Affected/At Risk (%): 2/21 (9.52%)
  Drug eruption: # Events: 0
  Drug eruption: Affected/At Risk (%): 0/21 (0%)
  Drug-related AE, No. (%): 14 (67)
  Drug-related SAE, No. (%): 0
  Dry eye: # Events: 2
  Dry eye: Affected/At Risk (%): 2/21 (9.52%)
  Dry skin: # Events: 1
  Dry skin: Affected/At Risk (%): 1/21 (4.76%)
  Dyspepsia: # Events: 1
  Dyspepsia: Affected/At Risk (%): 1/21 (4.76%)
  Dysphagia: # Events: 3
  Dysphagia: Affected/At Risk (%): 2/21 (9.52%)
  Dyspnoea exertional: # Events: 0
  Dyspnoea exertional: Affected/At Risk (%): 0/21 (0%)
  Dyspnoea: # Events: 6
  Dyspnoea: Affected/At Risk (%): 6/21 (28.57%)
  Embolism: # Events: 1
  Embolism: Affected/At Risk (%): 1/21 (4.76%)
  Enamel anomaly: # Events: 0
  Enamel anomaly: Affected/At Risk (%): 0/21 (0%)
  Epidural lipomatosis: # Events: 0
  Epidural lipomatosis: Affected/At Risk (%): 0/21 (0%)
  Epstein-Barr virus infection: # Events: 0
  Epstein-Barr virus infection: Affected/At Risk (%): 0/21 (0%)
  Erectile dysfunction: # Events: 0
  Erectile dysfunction: Affected/At Risk (%): 0/21 (0%)
  Eye irritation: # Events: 0
  Eye irritation: Affected/At Risk (%): 0/21 (0%)
  Eye pain: # Events: 0
  Eye pain: Affected/At Risk (%): 0/21 (0%)
  Eye pruritus: # Events: 0
  Eye pruritus: Affected/At Risk (%): 0/21 (0%)
  Fall: # Events: 1
  Fall: Affected/At Risk (%): 1/21 (4.76%)
  Fatigue: # Events: 14
  Fatigue: Affected/At Risk (%): 10/21 (47.62%)
  Flatulence: # Events: 1
  Flatulence: Affected/At Risk (%): 1/21 (4.76%)
  Flushing: # Events: 0
  Flushing: Affected/At Risk (%): 0/21 (0%)
